The source of these data is patent publication US20040102362A1, “Protocol for paracentesis” (priority 2000, published 2004).

The test system of this series is cirrhotic patients with tense ascites. The settings on record: human, in vivo.

Positions of bridges follow the written chain, without caps; N, C: chain ends. Residues, ends and D or L forms follow the SMILES beside them.

Method: Patient selection criteria: 24 clinically stable cirrhotic patients with tense ascites in need of therapeutic paracentesis were recruited to the study.
Treatment: Both groups received therapeutic paracentesis according to the usual protocol of the study centre. […] Plasma renin and aldosterone levels were measured as markers of blood volume. Certain other parameters were determined as secondary criteria for successful treatment.

Consider `NCCCC[C@H](NC(=O)[C@@H]1CCCN1C(=O)[C@@H]1CSSC[C@H](NC(=O)CNC(=O)CNC(=O)CN)C(=O)N[C@@H](Cc2ccc(O)cc2)C(=O)N[C@@H](Cc2ccccc2)C(=O)N[C@@H](CCC(N)=O)C(=O)N[C@@H](CC(N)=O)C(=O)N1)C(=O)NCC(N)=O` [Terlipressin] (H-GGGCYFQNCPKG-NH2; disulfide 4-9), for which the Creatininaemia worked out at 72 ± 8 and the Natraemia was 133 ± 1 mmol/L.
